From patent US5334589A, “Quinolone carboxylic acid--metal ion--acid complexes” (Abbott Laboratories, priority 1992, dated 1994)
Where two headings read alike, the source gives them in different places.

Tests used:
[1] = test system: rat tail vein; test: Vein irritation in rats (rat tail vein model); details: 100 mg/kg/day i.v., normal saline; for Normalized Rank: 5=normal
Method: Three studies were conducted: In Study I, four rats per group were given test compositions for three consecutive days at a concentration of 4 mg/ml (this and other concentrations expressed in terms of equivalent weight of temafloxacin base); in Study II, three rats per group were given test compositions for five consecutive days at 6 mg/ml; and in Study III, two groups of three rats each were given test compositions for five consecutive days at 4 mg/ml and 8 mg/ml, respectively. All rats were dosed at 100 mg/kg/day, with an infusion rate of 0.3 ml/minute.
Each rat was observed twice after each infusion: Once after 1-to-2 hours following injection, and again after 24 hours. Discoloration was ranked as follows:
4=Single red/pink spot of discoloration
3=Multiple red/pink spots of discoloration
2=Single purple spot of discoloration
1=Multiple purple spots of discoloration
0=Approx. one-fourth of distal tail discolored purple
Aggregate rankings were totaled for each group over the course of each study.

[2] = Solubility; type: physicochemical

In the case of CC1CN(c2cc3c(cc2F)c(=O)c(C(=O)O)cn3-c2ccc(F)cc2F)CCN1 (stereo not drawn) [Control B], the “Normalized Rank” value ([1]; Study II, 6 mg/ml, five consecutive days, 0=worst) is reported as 3.23 and the “Total Rank” value ([1]; Study II, 3 rats, 6 mg/ml, five consecutive days, rank 5=normal, 0=worst) is reported as 97.
With CC1CN(c2cc3c(cc2F)c(=O)c(C(=O)O)cn3-c2ccc(F)cc2F)CCN1 (stereo not drawn) [temafloxacin, 1-(2,4-difluorophenyl)-6-fluoro-1,4-dihydro-7-(3-methyl-l-piperazinyl)-4-oxo-3-quinoline carboxylic acid] the solubility ([2]; about pH 4 to about pH 10, read-out: solubility) was less than 500 µg/mL and the solubility ([2]; temafloxacin base in water, read-out: solubility in water) was less than 500 µg/mL.
In the case of CC1CN(c2cc3c(cc2F)c(=O)c(C(=O)O)cn3-c2ccc(F)cc2F)CCN1 (stereo not drawn) [Control A], the “Normalized Rank” value ([1]; Study I, 4 mg/ml, three consecutive days, group total / number of animals / number of measurements, 0=worst) is reported as 2.29 and the “Total Rank” value ([1]; Study I, 4 rats, 4 mg/ml, three consecutive days, discoloration rank 5=normal to 0=one-fourth of distal tail purple) is reported as 55.
